Experimental data: ChEMBL document CHEMBL1208740, “beta-Secretase (BACE-1) inhibitory effect of biflavonoids” (Bioorg Med Chem Lett, 2010)

molecular target: Beta-secretase 1 (Homo sapiens, UniProt P56817); assay: Inhibition of BACE1 after 60 mins by FRET assay
Sequence (P56817 whole entry): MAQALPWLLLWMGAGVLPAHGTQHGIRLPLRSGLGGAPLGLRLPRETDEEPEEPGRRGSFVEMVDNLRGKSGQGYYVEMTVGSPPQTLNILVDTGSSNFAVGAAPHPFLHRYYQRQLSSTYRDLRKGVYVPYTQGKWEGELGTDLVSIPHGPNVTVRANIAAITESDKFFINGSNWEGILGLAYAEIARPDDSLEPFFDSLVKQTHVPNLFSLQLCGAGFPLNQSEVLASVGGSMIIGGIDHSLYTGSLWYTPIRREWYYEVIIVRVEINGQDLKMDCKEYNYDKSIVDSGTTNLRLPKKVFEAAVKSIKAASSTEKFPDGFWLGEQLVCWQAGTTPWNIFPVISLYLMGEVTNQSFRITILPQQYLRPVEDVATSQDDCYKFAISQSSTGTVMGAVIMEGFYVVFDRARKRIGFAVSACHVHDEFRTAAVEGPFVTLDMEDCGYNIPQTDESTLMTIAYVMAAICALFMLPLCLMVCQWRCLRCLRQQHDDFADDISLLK

Row | SMILES | IC50 [µM]
1 | COc1ccc(-c2cc(=O)c3c(O)cc(O)c(-c4cc(-c5cc(=O)c6c(O)cc(OC)cc6o5)ccc4OC)c3o2)cc1 [SCIADOPITISIN] | > 10
2 | COc1ccc([C@@H]2CC(=O)c3c(cc(OC)c(C)c3O)O2)cc1-c1c(O)cc(O)c2c(=O)cc(-c3ccc(O)cc3)oc12 | 0.35
3 | COc1ccc(-c2cc(=O)c3c(O)cc(O)cc3o2)cc1-c1c(OC)cc(O)c2c(=O)cc(-c3ccc(O)cc3)oc12 | > 10
4 | COc1ccc(-c2cc(=O)c3c(O)cc(OC)c(-c4cc(-c5cc(=O)c6c(O)cc(O)cc6o5)ccc4OC)c3o2)cc1 [KAYAFLAVONE] | > 10
5 | COc1cc(O)c2c(=O)cc(-c3ccc(OC)c(-c4c(O)cc(O)c5c(=O)cc(-c6ccc(O)cc6)oc45)c3)oc2c1 [GINKGETIN] | 4.18
6 | COc1ccc(-c2cc(=O)c3c(O)cc(OC)c(-c4cc(-c5cc(=O)c6c(O)cc(OC)cc6o5)ccc4O)c3o2)cc1 [HEVEAFLAVONE] | > 10
7 | COc1cc(O)c2c(=O)cc(-c3ccc(OC)c(-c4c(OC)cc(O)c5c(=O)cc(-c6ccc(O)cc6)oc45)c3)oc2c1 | > 10
8 | O=c1cc(-c2ccc(O)cc2)oc2c(-c3c(O)cc(O)c4c(=O)cc(-c5ccc(O)cc5)oc34)c(O)cc(O)c12 [CUPRESSUFLAVONE] | > 10
9 | O=c1cc(-c2ccc(Oc3c(O)cc4oc(-c5ccc(O)cc5)cc(=O)c4c3O)cc2)oc2cc(O)cc(O)c12 [HINOKIFLAVONE] | > 10
10 | COc1ccc(-c2cc(=O)c3c(O)cc(OC)c(-c4cc(-c5cc(=O)c6c(O)cc(OC)cc6o5)ccc4OC)c3o2)cc1 | > 10
11 | O=c1cc(-c2ccc(O)c(-c3c(O)cc4oc(-c5ccc(O)cc5)cc(=O)c4c3O)c2)oc2cc(O)cc(O)c12 [ROBUSTAFLAVONE] | > 10

Next, values leading:

Row | IC50 [µM] | SMILES
12 | 1.4 | COc1cc(O)c2c(=O)cc(-c3ccc(O)c(-c4c(O)cc(O)c5c(=O)cc(-c6ccc(O)cc6)oc45)c3)oc2c1 [SEQUOIAFLAVONE]
13 | 1.58 | COc1cc(O)c2c(=O)cc(-c3ccc(O)cc3)oc2c1-c1cc(-c2cc(=O)c3c(O)cc(O)cc3o2)ccc1O [SOTETSUFLAVONE]
14 | 0.99 | COc1ccc(-c2cc(=O)c3c(O)cc(O)c(-c4cc(-c5cc(=O)c6c(O)cc(O)cc6o5)ccc4O)c3o2)cc1 [PODOCARPUSFLAVONE A]
15 | > 10 | COc1ccc(-c2cc(=O)c3c(O)cc(OC)c(-c4cc(-c5cc(=O)c6c(O)cc(O)cc6o5)ccc4O)c3o2)cc1 [7'',4'''-dimethylamentoflavone]
16 | 4.21 | COc1ccc(-c2cc(=O)c3c(O)cc(O)c(-c4cc(-c5cc(=O)c6c(O)cc(OC)cc6o5)ccc4O)c3o2)cc1 [PODOCARPUSFLAVONE B]
17 | 6.25 | COc1cc(O)c2c(=O)cc(-c3ccc(O)c(-c4c(OC)cc(O)c5c(=O)cc(-c6ccc(O)cc6)oc45)c3)oc2c1
18 | 3.01 | COc1ccc(-c2cc(=O)c3c(O)cc(O)c(-c4cc(-c5cc(=O)c6c(O)cc(O)cc6o5)ccc4OC)c3o2)cc1 [ISOGINKGETIN]
19 | 1.54 | O=c1cc(-c2ccc(O)c(-c3c(O)cc(O)c4c(=O)cc(-c5ccc(O)cc5)oc34)c2)oc2cc(O)cc(O)c12 [AMENTOFLAVONE]
20 | 2.02 | COc1ccc(-c2cc(=O)c3c(O)cc(O)cc3o2)cc1-c1c(O)cc(O)c2c(=O)cc(-c3ccc(O)cc3)oc12 [BILOBETIN]
